In PubChem BioAssay AID1645864 (Buhrlage Lab, Dana-Farber Cancer Institute and Novartis …, 2021):
Calls of active or inactive are those of the source.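 Rule for the calls: active = maximal inhibition of USP17 at or above 30% in the confirmation dose-response, a value not among the printed readouts; inactive = the rest.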

The compounds below were run against Ubiquitin carboxyl-terminal hydrolase 17-like protein 5 (Homo sapiens) (UniProt A8MUK1) (assay: ubiquitin-specific protease 17 inhibitors, concentration series, biochemical, verification of primary actives (AID 1645864)). Settings: purified USP17, ubiquitin-rhodamine cleavage fluorescence, 3 h.
Sequence of Ubiquitin carboxyl-terminal hydrolase 17-like protein 5 (Homo sapiens) (A8MUK1 whole entry, looked up): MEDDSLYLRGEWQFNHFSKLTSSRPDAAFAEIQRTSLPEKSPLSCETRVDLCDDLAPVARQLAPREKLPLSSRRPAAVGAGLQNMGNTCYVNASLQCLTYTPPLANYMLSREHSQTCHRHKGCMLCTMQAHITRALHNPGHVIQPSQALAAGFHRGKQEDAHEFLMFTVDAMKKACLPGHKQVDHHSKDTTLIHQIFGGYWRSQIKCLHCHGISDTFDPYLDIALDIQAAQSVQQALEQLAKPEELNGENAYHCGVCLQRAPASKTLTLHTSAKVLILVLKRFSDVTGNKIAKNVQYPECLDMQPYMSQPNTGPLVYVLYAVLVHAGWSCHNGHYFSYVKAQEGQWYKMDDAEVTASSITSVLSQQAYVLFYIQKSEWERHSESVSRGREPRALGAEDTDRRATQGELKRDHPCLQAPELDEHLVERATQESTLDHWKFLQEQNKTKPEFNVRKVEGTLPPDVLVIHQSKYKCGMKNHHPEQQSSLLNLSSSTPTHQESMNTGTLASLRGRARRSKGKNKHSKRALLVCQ

Row | SMILES | IC50
1 | COc1ccc(OC)c(NC(=O)CSc2nc(C)nc3c2oc2ccccc23)c1 | 2.54 µM
2 | CCc1ccc(NC(=O)CN=C2NS(=O)(=O)C(c3ccc(CC)cc3)=C2C)cc1 | 32.5 µM
3 | O=C(Nc1cccc(C(F)(F)F)c1)c1cc2c(s1)-c1ccccc1OC2 | 2.15 µM
4 | CCCN1C=NS(=O)(=O)c2cc(C(=O)Nc3ccc(OC)c(Cl)c3)ccc21 | 40.9 µM
5 | O=C(CSc1ccc2nnc(-c3ccccc3)n2n1)N1CCCc2ccccc21 | 13.1 µM
6 | Cc1ccc(S(=O)(=O)N2CCC3(CC2)NC(=O)c2ccccc2N3)cc1C | 29.8 µM
7 | CCOc1ccccc1NC(=O)Cn1ccn2nc(-c3ccc(OC)cc3)cc2c1=O | 6.49 µM
8 | Cc1ccc(CSC2=NS(=O)(=O)c3ccccc3N2)cc1 | > 50 µM (inactive)
9 | Cc1ccccc1Cn1cc(SCC(=O)Nc2ccc3c(c2)OCCO3)c2ccccc21 | > 50 µM (inactive)
10 | O=C(Nc1ccc2c(c1)OCCO2)Nc1nnc(CC(=O)N2CCCCC2)s1 | > 50 µM (inactive)
11 | O=C(c1cc2ccccc2o1)N1CC=C(c2ccccc2)CC1 | > 50 µM (inactive)
12 | O=C(CSc1nnc(Cn2cnc3ccccc32)o1)Nc1ccc([N+](=O)[O-])cc1 | 21.1 µM
13 | COc1ccc(NC(=O)C2CC(=O)Nc3c(-c4ccc(Cl)cc4)cnn32)c(OC)c1 (stereo not given) | 9.36 µM
14 | Cc1ccc2c(c1C)NC(=O)[C@]21[C@@H]2C(=O)N(c3cc(Cl)ccc3Cl)C(=O)[C@@H]2[C@@H]2CCCN21 | > 50 µM (inactive)
15 | CN1CCN(C(=O)c2cc(-c3ccn(-c4ccccc4)n3)n3ccccc23)CC1 | > 50 µM (inactive)
16 | COc1cc2c(cc1NC(=O)c1ccc(-n3cnnn3)cc1)oc1ccccc12 | 0.691 µM
17 | COc1ccc(-c2cc(C(F)F)n3ncc(C(=O)Nc4ccc5c(c4)OCCO5)c3n2)cc1 | > 50 µM (inactive)
18 | Cc1cccc(NC(=O)Cn2c(N3CCOCC3)nc3cc(C)n(C)c3c2=O)c1 | 27.6 µM
19 | C[C@@H]1OC2=C(C(=O)c3cccc(O)c3C2=O)[C@H](O)[C@@H]1O | 0.31 µM
20 | Cc1cnc2nc3c(cc2c1)CN(CCc1ccc(Cl)cc1)CC3 | > 50 µM (inactive)
21 | O=C(NCc1ccncc1)C1CCN(c2cncnc2N2CCCCC2)CC1 | > 50 µM (inactive)
22 | COCCNC(=O)Cn1c(=O)n(Cc2ccccc2)c(=O)c2c3c(sc21)CCC3 | 33.5 µM
23 | COc1ncccc1CN1CCn2c(Cn3cncn3)cnc2C1C (stereo not given) | > 50 µM (inactive)
24 | CCOc1ccc2c(c1)c(=O)c(C(=O)c1ccccc1)cn2CC(=O)Nc1ccccc1 | 5.29 µM
25 | CCCc1nc2sc3c(NCCN4CCOCC4)ncnc3c2c2c1CCC2 | > 50 µM (inactive)

Row | SMILES | IC50
26 | COc1ccc(-c2cc3nc([C@H](C)NC(=O)Cc4cccc(F)c4)nn3cn2)cc1 | 3.75 µM
27 | Cc1ccccc1C(=O)OCCN1C(=O)c2cccc3c(N4CCCCC4)ccc(c23)C1=O | > 50 µM (inactive)
28 | CO[C@H]1CC[C@H](O)c2c1oc1c3c4c(c(O)c1c2=O)-c1c(cc2c(Cl)c(C)n(N)c(=O)c2c1O)C[C@@H]4OCO3 | 14 µM
29 | Cc1cnnn1-c1ccc(C(=O)Nc2cc(Cl)ccc2Cl)cc1 | 29.2 µM
30 | Cc1ccc(C2c3c(-c4ccccc4O)n[nH]c3C(=O)N2Cc2ccco2)cc1 (stereo not given) | 28.1 µM
31 | O=C(Nc1cccc(Br)c1)c1cc(-c2cccnc2)n[nH]1 | 4.2 µM
32 | CCNc1oc(-c2ccc(S(=O)(=O)N3CCCCC3)cc2)nc1C#N | 24.2 µM
33 | CC(=O)C1=C(O)[C@]2(O)C(=O)c3c(c(C)c4ccc(C)c(O)c4c3O)C[C@H]2[C@@H](N)C1=O | 1.14 µM
34 | CSc1ccc(CNCc2c(C(=O)O)n(Cc3ccccc3)c3cc(C)ccc23)cc1 | > 50 µM (inactive)
35 | CC(C)NC(=O)CN1C(=O)CC(C)Sc2ccc(S(=O)(=O)N3CCCCC3)cc21 (stereo not given) | 25.2 µM
36 | CC(Nc1ncnc2c1sc1nc(N3CCOCC3)c3c(c12)CCC3)c1ccccc1 (stereo not given) | 5.33 µM
37 | Cc1sc(NC(=O)CNc2ccccc2)nc1-c1ccc2c(c1)CCN2C(=O)C(C)C | > 50 µM (inactive)
38 | O=C(CCc1nnc2n(Cc3ccc(F)cc3)c(=O)c3ccccc3n12)N1CCN(c2ccccn2)CC1 | > 50 µM (inactive)
39 | COc1ccc(C)cc1NC(=O)C1CC(=O)Nc2nc3ccccc3n21 (stereo not given) | 33.9 µM
40 | O=C(c1ccc2cc[nH]c2c1)N1CCC(Nc2cccnc2)C1 (stereo not given) | > 50 µM (inactive)
41 | O=C(CNc1ccc(F)c(Cl)c1)Nc1ccc2c(c1)OCCO2 | > 50 µM (inactive)
42 | Cn1c(CCN2CCCC2)nc2cc(NC(=O)c3ccccc3)ccc21 | > 50 µM (inactive)
43 | COc1cccc(NC(=O)Cc2sc(Nc3cc(C)cc(C)c3)nc2O)c1 | 17.8 µM
44 | COc1ccc(NC(=O)Nc2cccc(-c3nnc(-c4ccccc4)o3)c2)cc1OC | 10.9 µM
45 | Nc1c(-c2ccc(Cl)cc2)cnc2nc(Sc3ncc(C(F)(F)F)cc3Cl)nn12 | > 50 µM (inactive)
46 | O=c1ccc(-c2noc(Cc3c(F)cccc3Cl)n2)c[nH]1 | > 50 µM (inactive)
47 | COc1ccc2nc(SCC(=O)Nc3ccc(NC(C)=O)cc3)c(C)cc2c1 | 6.42 µM
48 | COc1ccc(NC(=O)c2[nH]nc3c2COc2ccccc2-3)c(OC)c1 | 5.5 µM
49 | Cc1ccc(N2CC(c3nc4ccccc4n3CCCCOc3ccccc3)CC2=O)cc1 (stereo not given) | > 50 µM (inactive)
50 | CC1(C)Cc2c(c(-c3ccco3)nc3sc4c(SCCCc5ccccc5)ncnc4c23)CO1 | 34.4 µM

Row | SMILES | IC50
51 | O=C(Nc1nnc2n1CCCS2)c1cccc(Cl)c1 | > 50 µM (inactive)
52 | CC1CCCCN1c1nc(F)c2c(c1F)S(=O)(=O)CCN2Cc1ccccc1 (stereo not given) | > 50 µM (inactive)
53 | COc1cccc(N2CCN(C(=O)C3CCN(c4nc(NC(C)=O)ns4)CC3)CC2)c1 | 29.2 µM
54 | COc1cnc(CSc2ncccn2)cc1OCC(=O)Nc1cc(C)ccc1C | > 50 µM (inactive)
55 | CC(=O)Nc1ccc(-n2cnc(C(=O)NC(C)c3ccccc3)c2)nc1 (stereo not given) | 29.2 µM
56 | CS(=O)(=O)N1CCc2cc(C(=O)Nc3ccc(Cc4ccncc4)cc3)ccc21 | > 50 µM (inactive)
57 | CN1C(=O)COc2ccc(NC(=O)c3cc(-c4ccccc4)on3)cc21 | 9.45 µM
58 | Fc1cnc(N2CC[C@H]3CO[C@H](CNc4ncccn4)[C@H]3C2)nc1 | > 50 µM (inactive)
59 | O=C(Cn1ncc2c(N3CCCCCC3)ncnc21)NCc1ccccc1 | > 50 µM (inactive)
60 | Cc1ccccc1Cn1ccc(NC(=O)c2noc(C)c2[N+](=O)[O-])n1 | > 50 µM (inactive)
61 | Cc1cccc(NC(=O)CSc2nnc(-c3n[nH]c4c3CCC4)n2N)c1C | 18.1 µM
62 | CCCc1nc2sc3c(NCCc4ccc(OC)c(OC)c4)ncnc3c2c2c1CCC2 | > 50 µM (inactive)
63 | O=C1Nc2ccccc2C(=O)C1C(c1ccc(Cl)cc1)C1C(=O)Nc2ccccc2C1=O (stereo not given) | 35.6 µM
64 | CC(C)(C)c1ccc(C(=O)Nc2ccc(Cn3cncn3)cc2)cc1 | > 50 µM (inactive)
65 | O=C(/C=C/c1ccc2c(c1)OCO2)Nc1nc2c(s1)COCC2 | 17.4 µM
66 | Cc1cc(NC(=O)c2cc(-c3cccnc3)n[nH]2)ccc1Br | 1.95 µM
67 | Cc1ccc(-n2c(-c3ccccc3)cn3c4c(=O)[nH]c(=O)n(C)c4nc23)cc1Cl | 0.226 µM
68 | O=C(CN(Cc1ccc(Cl)cc1)S(=O)(=O)c1ccc(Cl)cc1)N1CCOCC1 | > 50 µM (inactive)
69 | O=C(Nc1cccc(-c2nc3ccccc3[nH]2)c1)c1cc2ccccc2oc1=O | 0.429 µM
70 | O=C(Nc1ccc2c(c1)OCCO2)c1cc(CN2CCOCC2)on1 | > 50 µM (inactive)
71 | Cc1ccc(Cc2nc(-c3ccc(=O)[nH]c3)no2)cc1 | > 50 µM (inactive)
72 | CCOC(=O)c1cccc(NC(=O)Nc2cccn3nc(C)nc23)c1 | > 50 µM (inactive)
73 | Cc1ccc(S(=O)(=O)N2CCC3(CC2)NC(=O)c2ccccc2N3)c(C)c1 | 17.9 µM
74 | COc1ccc(CCNC(=O)CCn2c(=O)c3ccccc3n(Cc3ccc(C)cc3)c2=O)cc1OC | 28.6 µM
75 | O=C(COc1cc([N+](=O)[O-])cc2cccnc12)NCCC1=CCCCC1 | 23.5 µM

Row | SMILES | IC50
76 | CCCC1Cc2c(sc3nc(SCC)nc(N)c23)CO1 (stereo not given) | 7.76 µM
77 | Cc1nc(C(=O)NC2(O)C(=O)c3ccccc3C2=O)cs1 | 2.06 µM
78 | CCc1ccc(-c2nc(SCC(=O)Nc3ccc4[nH]c(=O)[nH]c4c3)n[nH]2)cc1 | 27.4 µM
79 | COc1cc(Cl)ccc1Nc1ncc(C(=O)Nc2cc(OC)c(OC)c(OC)c2)c2ccccc12 | < 0.05 µM
80 | CCc1cc2cc3c(cc2nc1SCC(=O)Nc1cccc(C(C)=O)c1)OCO3 | 2.29 µM
81 | Cc1ccc(C(C)C)cc1OCCOCCN1CCNCC1 | > 50 µM (inactive)
82 | CCOCCCn1c(SCC(=O)Nc2ccccc2C(F)(F)F)nc2ccccc2c1=O | 20.9 µM
83 | O=C(COc1ccc(Cl)cc1Cl)Nc1ccc2[nH]c(=O)[nH]c2c1 | 7.41 µM
84 | COc1ccc(OC)c(C2CC(=O)Nc3n[nH]c(-c4ccccc4)c32)c1 (stereo not given) | 24.6 µM
85 | Cc1cc(SCc2ncon2)c(C)cc1Cl | > 50 µM (inactive)
86 | Fc1cccc(Cn2cc(-c3noc(-c4ccncc4)n3)nn2)c1 | 28.7 µM
87 | CC1=CN2C(=N)/C(=C/c3cn(Cc4ccc(Cl)cc4)c4ccccc34)C(=O)N=C2S1 | > 50 µM (inactive)
88 | CCOc1ccc(-n2c(C)cc(/C=C(\C#N)c3nc4ccccc4[nH]3)c2C)cc1 | > 50 µM (inactive)
89 | O=S(c1ccc2ccccc2c1)c1cnns1 (stereo not given) | > 50 µM (inactive)
90 | Cc1ccc(C)c(S(=O)(=O)N2CCN(c3ccc4nnc(-c5ccco5)n4n3)CC2)c1 | 22.6 µM
91 | Cc1ccccc1C(=O)OCCN1C(=O)c2cccc3c(N4CCOCC4)ccc(c23)C1=O | > 50 µM (inactive)
92 | Cc1cc(O)c(Oc2cc(C)cc(O)c2O)c(O)c1 | 26.6 µM
93 | CCn1c(=N)n(CCOc2ccc(F)cc2)c2ccccc21 | > 50 µM (inactive)
94 | Cc1cc(C)cc(NC(=O)CN2C(=O)CC(c3ccccc3)Sc3ccccc32)c1 (stereo not given) | > 50 µM (inactive)
95 | CCc1ccccc1NC(=O)COc1ccccc1-c1nnc(-c2ccccc2)o1 | 25 µM
96 | CCC(CC)n1[nH]c(=O)c2c1NC(=O)CSC2c1ccc2c(c1)OCO2 (stereo not given) | 18.5 µM
97 | C=Cc1ccc(Cn2cc(S(=O)(=O)N3CCOCC3)ccc2=O)cc1 | 40.6 µM
98 | CC(=O)O[C@H]1[C@]2(O)C[C@]34SS[C@](CO)(C(=O)N3[C@@H]2C[C@@]12O[C@@H](C)C(C)(C)C2=O)N(C)C4=O | > 50 µM (inactive)
99 | Cc1ccc(NC(=O)C2CCN(c3cncnc3N3CCCC3)CC2)cc1 | > 50 µM (inactive)
100 | Cc1ccc(-c2nc(NC(=O)Nc3ccc(Cl)cc3)sc2C)cc1 | 19.6 µM
